15 molecules from ChEMBL document CHEMBL3301562, “MMV Box screening against Plasmodium falciparum protein kinases and aminoacyl tRNA synthetases” can be followed below.

Where only a bound is given, the exact number is not on record here.

What all share (type): functional
In assay [1] the target is T1, Putative uncharacterized protein pk7 (Plasmodium falciparum, UniProt O96214).
T1 sequence (O96214 whole entry): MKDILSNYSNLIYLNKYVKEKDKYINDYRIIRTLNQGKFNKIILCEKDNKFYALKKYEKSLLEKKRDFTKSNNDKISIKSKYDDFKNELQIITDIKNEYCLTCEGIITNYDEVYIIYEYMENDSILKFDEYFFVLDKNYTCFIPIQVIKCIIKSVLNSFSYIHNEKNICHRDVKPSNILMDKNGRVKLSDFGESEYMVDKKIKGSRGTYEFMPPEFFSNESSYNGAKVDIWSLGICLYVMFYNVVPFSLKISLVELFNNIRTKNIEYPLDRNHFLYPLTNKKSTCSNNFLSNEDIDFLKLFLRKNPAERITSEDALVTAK
The assay is described as follows: Final concentrations were 1 uM ATP, 2 mM DTT, 20 mM MgCl2, 2 mM MnCl2, 0.01% BSA, and 6 ug/ml PK7, in a buffer of 20 mM Tris-HCl (pH 7.5). The enzyme itself was the only substrate present (since autophosphorylation occurs); 100 uM 1NA-PP1 was used as a control inhibitor. Incubation time was 3 hours.

A further assay addresses T2, Proline--tRNA ligase (Plasmodium falciparum (isolate 3D7), UniProt Q8I5R7).
T2 sequence (Q8I5R7 whole entry): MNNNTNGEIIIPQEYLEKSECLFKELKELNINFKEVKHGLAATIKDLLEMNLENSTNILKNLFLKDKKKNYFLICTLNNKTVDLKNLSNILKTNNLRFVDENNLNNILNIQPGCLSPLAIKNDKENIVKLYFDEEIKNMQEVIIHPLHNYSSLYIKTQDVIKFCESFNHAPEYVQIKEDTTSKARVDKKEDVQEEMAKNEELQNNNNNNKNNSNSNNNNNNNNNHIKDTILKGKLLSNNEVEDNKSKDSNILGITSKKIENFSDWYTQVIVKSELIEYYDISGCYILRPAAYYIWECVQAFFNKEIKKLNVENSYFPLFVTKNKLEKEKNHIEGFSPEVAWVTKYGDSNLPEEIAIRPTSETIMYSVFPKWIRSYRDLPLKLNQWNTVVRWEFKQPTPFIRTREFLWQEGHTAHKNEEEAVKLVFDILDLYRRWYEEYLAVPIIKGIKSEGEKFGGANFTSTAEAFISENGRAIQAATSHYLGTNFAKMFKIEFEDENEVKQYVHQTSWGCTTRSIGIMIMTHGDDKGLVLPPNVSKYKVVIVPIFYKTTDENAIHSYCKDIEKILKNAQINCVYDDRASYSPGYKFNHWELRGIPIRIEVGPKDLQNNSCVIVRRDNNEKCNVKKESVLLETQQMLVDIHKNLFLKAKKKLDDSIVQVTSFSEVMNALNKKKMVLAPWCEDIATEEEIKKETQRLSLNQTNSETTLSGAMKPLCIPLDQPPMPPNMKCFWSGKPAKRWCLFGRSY
As to the kind of experiment: MMV: ProRS recombinant Plasmodium falciparum Prolyl-tRNA-synthetase, assay with yeast tRNA, ATP, and proline and 3 uM MMV malaria box compound, assay read out with kinase glo as % inhibition. On the technique in general: Kinase-Glo reads ATP consumption through a luciferase reaction.

In assay [2] the target is Calcium-dependent protein kinase 1 (Plasmodium falciparum, UniProt P62344). The assay is described as follows: MMV: CDPK1 Protein kinase inhibition assay using recombinant PfCDPK1, syntide 2 peptide substrate, ATP and KinaseGlo to measure % inhibition at 1 uM MMV box compound.
Chain of Calcium-dependent protein kinase 1 (P62344 whole entry): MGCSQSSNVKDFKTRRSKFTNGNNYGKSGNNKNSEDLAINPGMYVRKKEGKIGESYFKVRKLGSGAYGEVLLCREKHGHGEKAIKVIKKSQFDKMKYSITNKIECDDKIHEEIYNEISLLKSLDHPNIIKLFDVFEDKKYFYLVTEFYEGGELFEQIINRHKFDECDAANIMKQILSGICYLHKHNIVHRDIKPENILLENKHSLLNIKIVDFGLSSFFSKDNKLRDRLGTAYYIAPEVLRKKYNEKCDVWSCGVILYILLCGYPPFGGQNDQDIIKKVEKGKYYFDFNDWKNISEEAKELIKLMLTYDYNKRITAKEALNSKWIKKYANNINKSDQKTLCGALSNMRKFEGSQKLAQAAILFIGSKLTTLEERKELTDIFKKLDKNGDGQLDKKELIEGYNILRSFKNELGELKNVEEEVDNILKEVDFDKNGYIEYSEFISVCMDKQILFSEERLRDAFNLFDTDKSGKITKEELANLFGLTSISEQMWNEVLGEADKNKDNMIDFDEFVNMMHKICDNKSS
Assay [3] has as its target T3, Mitogen-activated protein kinase (Plasmodium falciparum, UniProt Q25917).
T3 sequence (Q25917 whole entry): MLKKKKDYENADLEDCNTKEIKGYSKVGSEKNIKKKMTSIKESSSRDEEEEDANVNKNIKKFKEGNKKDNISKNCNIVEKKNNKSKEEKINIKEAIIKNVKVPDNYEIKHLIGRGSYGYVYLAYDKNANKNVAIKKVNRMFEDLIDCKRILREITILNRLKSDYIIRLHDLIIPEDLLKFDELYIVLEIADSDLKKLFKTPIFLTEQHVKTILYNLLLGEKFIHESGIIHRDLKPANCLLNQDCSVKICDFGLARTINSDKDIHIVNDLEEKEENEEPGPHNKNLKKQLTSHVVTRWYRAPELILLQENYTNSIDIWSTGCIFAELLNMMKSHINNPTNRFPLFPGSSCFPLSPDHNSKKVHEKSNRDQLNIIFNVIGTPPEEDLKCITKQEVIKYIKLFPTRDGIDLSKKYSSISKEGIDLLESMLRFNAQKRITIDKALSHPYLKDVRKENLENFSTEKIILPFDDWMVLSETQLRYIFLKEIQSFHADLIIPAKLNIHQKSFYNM
The assay is described as follows: Final concentrations were 1 uM ATP, 0.5 mM DTT, 1 mM MgCl2, 0.5 mg/mL BSA, and 10 ug/ml MAP2 in a buffer of 50 mM HEPES (pH 7.0). 0.5 mg/mL histone III-S served as the substrate (13); 100 uM AMP-PNP, an ATP analog, was used as a control inhibitor. Incubation time was 4 hours.

Assay [4] deals with T4, Calcium-dependent protein kinase 4 (Plasmodium falciparum (isolate 3D7), UniProt Q8IBS5).
T4 sequence (Q8IBS5 whole entry): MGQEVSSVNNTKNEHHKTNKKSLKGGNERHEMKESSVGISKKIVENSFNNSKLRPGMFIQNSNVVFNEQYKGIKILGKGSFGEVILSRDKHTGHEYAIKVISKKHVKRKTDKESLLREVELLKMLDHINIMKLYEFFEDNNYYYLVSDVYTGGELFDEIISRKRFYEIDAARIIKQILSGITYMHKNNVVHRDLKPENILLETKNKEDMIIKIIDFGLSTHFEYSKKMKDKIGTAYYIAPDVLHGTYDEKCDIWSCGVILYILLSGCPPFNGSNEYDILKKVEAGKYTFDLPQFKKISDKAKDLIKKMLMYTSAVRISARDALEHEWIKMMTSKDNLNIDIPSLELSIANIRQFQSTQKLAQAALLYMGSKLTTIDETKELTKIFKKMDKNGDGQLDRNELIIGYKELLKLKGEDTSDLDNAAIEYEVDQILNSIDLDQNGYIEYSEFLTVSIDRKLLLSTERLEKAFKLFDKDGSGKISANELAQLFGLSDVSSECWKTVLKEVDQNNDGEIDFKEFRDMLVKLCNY
As to the kind of experiment: MMV: CDPK4 Protein kinase inhibition assay using recombinant PfCDPK4, syntide2 peptide substrate, ATP and KinaseGlo to measure % inhibition at 1 uM MMV box compound.

A further assay deals with Lysine--tRNA ligase (Plasmodium falciparum (isolate 3D7), UniProt Q8IDJ8). As to the kind of experiment: MMV: KRS recombinant Plasmodium falciparum Lysyl-tRNA-synthetase, assay with yeast tRNA, ATP, and lysine and 3 uM MMV malaria box compound, assay read out with kinase glo as % inhibition.
Chain of Lysine--tRNA ligase (Q8IDJ8 whole entry): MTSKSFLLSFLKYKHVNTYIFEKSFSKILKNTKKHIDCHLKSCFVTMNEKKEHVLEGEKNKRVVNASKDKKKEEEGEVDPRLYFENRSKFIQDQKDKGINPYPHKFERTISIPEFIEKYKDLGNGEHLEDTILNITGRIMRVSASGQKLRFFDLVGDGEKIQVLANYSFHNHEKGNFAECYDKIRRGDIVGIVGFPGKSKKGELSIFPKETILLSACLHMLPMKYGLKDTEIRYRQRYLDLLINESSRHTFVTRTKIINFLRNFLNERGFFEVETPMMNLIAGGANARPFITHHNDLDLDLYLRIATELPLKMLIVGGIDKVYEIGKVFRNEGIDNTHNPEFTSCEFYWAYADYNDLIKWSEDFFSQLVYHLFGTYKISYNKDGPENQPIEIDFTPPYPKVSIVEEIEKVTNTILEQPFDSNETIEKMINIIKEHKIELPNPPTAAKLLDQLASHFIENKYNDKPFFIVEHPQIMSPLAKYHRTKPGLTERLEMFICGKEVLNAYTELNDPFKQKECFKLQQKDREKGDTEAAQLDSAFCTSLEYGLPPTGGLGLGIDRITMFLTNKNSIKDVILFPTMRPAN
The target of assay [5] is T5, Cdk-related protein kinase 6 (Plasmodium falciparum, UniProt O77239).
T5 sequence (O77239 whole entry): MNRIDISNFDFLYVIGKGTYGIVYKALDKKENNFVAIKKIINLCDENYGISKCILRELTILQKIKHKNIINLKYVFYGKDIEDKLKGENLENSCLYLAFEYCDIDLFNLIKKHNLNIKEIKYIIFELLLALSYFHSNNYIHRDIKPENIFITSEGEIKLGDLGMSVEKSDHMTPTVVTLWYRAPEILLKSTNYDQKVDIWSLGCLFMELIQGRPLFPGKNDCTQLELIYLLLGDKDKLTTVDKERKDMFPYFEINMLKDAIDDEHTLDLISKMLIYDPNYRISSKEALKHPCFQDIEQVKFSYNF
As to the kind of experiment: Final concentrations were 1.5 uM ATP, 5 mM MnCl2, and 15 ug/ml PK6 in a buffer of 100 mM Tris-HCl (pH 7.5). 50 ug/mL MBP was provided as the substrate; 10 uM staurosporine was used as a control inhibitor. Incubation time was 3 hours and 40 minutes.The catalytic activity of each kinase was considered proportional to ATP consumed, as determined from measurements of residual [ATP] with the luciferase-based reagent Kinase-Glo (Promega) following incubation. Luminescence (proportional to residual [ATP]) was measured on the plate readers FLx800 (BioTek Instruments, Winooski, VT, USA) and MicroBeta2.

With `COc1ccc2nc(C)cc(Nc3ccccc3O)c2c1`, the IC50 (commonly the concentration that inhibits the measured activity by half) in assay [1] was more than 1 µM; on Proline--tRNA ligase it was more than 2.5 µM; in assay [2] it was more than 1 µM; in assay [3], more than 1 µM; in assay [4], more than 1 µM; at Lysine--tRNA ligase it was more than 2.5 µM. This molecule also registered an IC50 in assay [5] of more than 1 µM.
In the case of `CCn1nc(-c2ccc(C(=O)OC)cc2)nc2c(=O)n(C)c(=O)nc1-2`, the IC50 in assay [1] was more than 1 µM; at Proline--tRNA ligase, more than 2.5 µM; in assay [2], more than 1 µM; in assay [3] it was more than 1 µM; in assay [4] it was more than 1 µM; on Lysine--tRNA ligase it was more than 2.5 µM. The molecule also gave an IC50 in assay [5] of more than 1 µM.
As to `CC1(c2ccccc2)Nc2ccccc2-c2nc3ccccc3n21` (stereo not given), the IC50 is more than 1 µM in assay [1]; more than 2.5 µM on Proline--tRNA ligase; more than 1 µM in assay [2]; more than 1 µM in assay [3]; more than 1 µM in assay [4]; more than 2.5 µM at Lysine--tRNA ligase. In assay [5], this molecule came in with an IC50 of more than 1 µM.
In the case of `CCC(O)c1ccc(Br)cc1NC(=O)c1cccc(Cl)c1` (stereo not given), the 50% inhibitory concentration (IC50) in assay [1] is more than 1 µM; at Proline--tRNA ligase, more than 2.5 µM; in assay [2], more than 1 µM; in assay [3], more than 1 µM; in assay [4], more than 1 µM; at Lysine--tRNA ligase, more than 2.5 µM. In assay [5], this molecule registered an IC50 of more than 1 µM.
As for `Cc1cc(Nc2cccc(F)c2)nc(NCc2ccccc2)n1`, the IC50 in assay [1] is more than 1 µM; at Proline--tRNA ligase, more than 2.5 µM; in assay [2], more than 1 µM; in assay [3], more than 1 µM; in assay [4], more than 1 µM; on Lysine--tRNA ligase, more than 2.5 µM. The IC50 in assay [5] was more than 1 µM.
`O=C(Nc1cccc(-c2nc3ccccc3[nH]2)c1)c1cccc(NC(=O)c2ccco2)c1`: the IC50 was more than 1 µM in assay [1]; more than 2.5 µM on Proline--tRNA ligase; more than 1 µM in assay [2]; more than 1 µM in assay [3]; more than 1 µM in assay [4]; more than 2.5 µM on Lysine--tRNA ligase. This molecule also registered an IC50 in assay [5] of more than 1 µM.
Consider `O=C(NC1CCN(Cc2ccccc2)CC1)c1cc(-c2cccnc2)nc2ccc(Cl)cc12`, for which the IC50 is more than 1 µM in assay [1]; more than 2.5 µM at Proline--tRNA ligase; more than 1 µM in assay [2]; more than 1 µM in assay [3]; more than 1 µM in assay [4]; more than 2.5 µM at Lysine--tRNA ligase. The molecule further had a concentration for half-maximal inhibition (IC50) in assay [5] of more than 1 µM.
Take `Cc1cc(NC(=O)c2ccc(-c3ccccc3)cc2)no1`: the IC50 in assay [1] was more than 1 µM; at Proline--tRNA ligase, more than 2.5 µM; in assay [2], more than 1 µM; in assay [3], more than 1 µM; in assay [4] it was more than 1 µM; at Lysine--tRNA ligase it was more than 2.5 µM. The molecule further displayed an IC50 in assay [5] of more than 1 µM.
In the case of `O=C1CC(O)(C(F)(F)C(F)(F)F)Oc2ccccc21` (stereo not given), the IC50 in assay [1] is more than 1 µM; at Proline--tRNA ligase, more than 2.5 µM; in assay [2] it was more than 1 µM; in assay [3], more than 1 µM; in assay [4], more than 1 µM; on Lysine--tRNA ligase, more than 2.5 µM. For the same molecule, in assay [5], the IC50 was more than 1 µM.
`COc1cc(SC)ccc1C(=O)N1CCCC(C)C1` (stereo not given): the IC50 in assay [1] is more than 1 µM; at Proline--tRNA ligase, more than 2.5 µM; in assay [2] it was more than 1 µM; in assay [3], more than 1 µM; in assay [4], more than 1 µM; on Lysine--tRNA ligase, more than 2.5 µM. The molecule also displayed an IC50 in assay [5] of more than 1 µM.
Consider `Cc1ccc(NC(=O)Nc2cccc(Cl)c2)cc1F`, for which the IC50 in assay [1] is more than 1 µM; on Proline--tRNA ligase, more than 2.5 µM; in assay [2], more than 1 µM; in assay [3] it was more than 1 µM; in assay [4], more than 1 µM; at Lysine--tRNA ligase, more than 2.5 µM. The molecule also registered an IC50 in assay [5] of more than 1 µM.
`O=c1nc(C=Cc2ccc(Cl)cc2)oc2ccccc12`: the half-inhibitory concentration (IC50) in assay [1] is more than 1 µM; on Proline--tRNA ligase, more than 2.5 µM; in assay [2], more than 1 µM; in assay [3], more than 1 µM; in assay [4] it was more than 1 µM; at Lysine--tRNA ligase it was more than 2.5 µM. The IC50 in assay [5] is more than 1 µM.
Regarding `O=C(NCc1ccco1)C1CCN(S(=O)(=O)c2ccc(Br)cc2)CC1`, the IC50 was more than 1 µM in assay [1]; more than 2.5 µM at Proline--tRNA ligase; more than 1 µM in assay [2]; more than 1 µM in assay [3]; more than 1 µM in assay [4]; more than 2.5 µM on Lysine--tRNA ligase. The molecule further gave an IC50 in assay [5] of more than 1 µM.
On to `COc1ccc(Nc2nc(NCc3ccccc3)c3ccccc3n2)cc1`, for which the IC50 was more than 1 µM in assay [1]; more than 2.5 µM at Proline--tRNA ligase; more than 1 µM in assay [2]; more than 1 µM in assay [3]; more than 1 µM in assay [4]; more than 2.5 µM at Lysine--tRNA ligase. Further, the IC50 in assay [5] is more than 1 µM.
In the case of `COc1cc2c(cc1OC)C1=NNC(=O)C1=NC(C)(C)C2`, the IC50 is more than 1 µM in assay [1]; more than 2.5 µM on Proline--tRNA ligase; more than 1 µM in assay [2]; more than 1 µM in assay [3]; more than 1 µM in assay [4]; more than 2.5 µM on Lysine--tRNA ligase. Further, the IC50 in assay [5] is more than 1 µM.
